Measurements reported in ChEMBL document CHEMBL3856234, “Development of Multifunctional Pyrimidinylthiourea Derivatives as Potential Anti-Alzheimer Agents” (J Med Chem, 2016).

Assays:
[1] = Permeability of the compound in PBS/EtOH (7:3) buffer measured after 10 hrs by PAMPA assay; format: ADME; settings: read-out: Peff
[2] = target: T1, Acetylcholinesterase (Rattus norvegicus) (UniProt P37136); assay: Inhibition of rat cortex AChE at 40 uM using acetylthiocholine iodide as substrate measured after 20 mins by Ellman's method relative to control
T1 sequence (whole entry): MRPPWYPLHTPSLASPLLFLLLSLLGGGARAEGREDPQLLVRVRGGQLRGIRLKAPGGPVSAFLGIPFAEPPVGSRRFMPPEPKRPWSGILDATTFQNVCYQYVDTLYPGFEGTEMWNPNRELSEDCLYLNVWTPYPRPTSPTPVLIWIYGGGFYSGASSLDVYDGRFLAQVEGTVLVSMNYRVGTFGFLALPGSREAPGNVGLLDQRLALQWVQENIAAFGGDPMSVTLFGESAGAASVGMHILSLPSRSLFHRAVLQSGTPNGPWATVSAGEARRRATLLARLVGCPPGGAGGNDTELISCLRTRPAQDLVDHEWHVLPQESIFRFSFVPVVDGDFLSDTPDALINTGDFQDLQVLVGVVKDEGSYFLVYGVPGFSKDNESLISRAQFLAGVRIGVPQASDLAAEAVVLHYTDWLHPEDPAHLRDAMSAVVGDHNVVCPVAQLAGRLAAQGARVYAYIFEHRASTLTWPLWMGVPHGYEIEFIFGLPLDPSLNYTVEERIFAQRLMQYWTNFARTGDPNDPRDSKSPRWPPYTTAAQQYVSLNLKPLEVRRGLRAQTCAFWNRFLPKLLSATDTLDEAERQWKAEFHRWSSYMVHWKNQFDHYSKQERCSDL

Acetylcholinesterase = target: T2, Acetylcholinesterase (Rattus norvegicus, UniProt P37136); assay: Inhibition of rat cortex AChE using acetylthiocholine iodide as substrate measured after 20 mins by Ellman's method
T2 sequence (P37136 whole entry): T1 sequence (whole entry)

Rattus norvegicus [3] = species: Rattus norvegicus; assay: Inhibition of rat serum BuChE at 40 uM using butyrylthiocholine as substrate measured after 20 mins by Ellman's method relative to control
[4] = Inhibition of rat serum BuChE using butyrylthiocholine as substrate measured after 20 mins by Ellman's method
[5] = Antioxidant activity assessed as trolox equivalent of AAPH radical scavenging activity preincubated for 10 mins followed by AAPH challenge measured every min for 180 mins by ORAC-FL assay; format: functional
Rattus norvegicus [6] = species: Rattus norvegicus; assay: Selectivity index, ratio of IC50 for rat serum BuChE to IC50 for rat cortex AChE
[7] = Cytotoxicity against human SH-SY5Y cells assessed as reduction in cell viability at 100 uM measured after 24 hrs by MTT assay; format: toxicity, cell-based
[8] = Cytotoxicity against human SH-SY5Y cells assessed as reduction in cell viability at 10 and 30 uM measured after 24 hrs by MTT assay; format: toxicity, cell-based
[9] = Metal chelating activity assessed as Zn2+-compound complex formation at 40 uM measured after 1 hr by UV-vis spectroscopic analysis; format: physicochemical
[10] = Metal chelating activity assessed as Fe3+-compound complex formation at 40 uM measured after 1 hr by UV-vis spectroscopic analysis; format: physicochemical
[11] = Metal chelating activity assessed as Cu2+-compound complex formation at 40 uM measured after 1 hr by UV-vis spectroscopic analysis; format: physicochemical
[12] = Metal chelating activity assessed as Fe2+-compound complex formation at 40 uM measured after 1 hr by UV-vis spectroscopic analysis; format: physicochemical

## CNCCCN1c2ccccc2CCc2ccccc21 [DESIPRAMINE]
[1]
  Papp at 10 h: 16.6 ×10⁻⁶ cm/s

## CCNC(=S)Nc1cc(-n2ccnc2)ncn1
[2]
  inhibition: 72.8%
Acetylcholinesterase
  IC50: 1590 nM

## CCNC(=S)Nc1cc(-n2ccnc2CC)ncn1
Acetylcholinesterase
  IC50: 6700 nM

## CCNC(=S)Nc1cc(-n2cnc(CO)c2)ncn1
Acetylcholinesterase
  IC50: 995 nM

## CCNC(=S)Nc1cc(-n2cccn2)ncn1
[2]
  inhibition: 77.3%
Acetylcholinesterase
  IC50: 8140 nM

## CCNC(=S)Nc1cc(-n2cnc3ccccc32)ncn1
[2]
  inhibition: 66.2%
Acetylcholinesterase
  IC50: 7840 nM

## CCNC(=S)Nc1cc(-n2cnc(CN3CCOCC3)c2)ncn1
Acetylcholinesterase
  IC50: 304 nM
Rattus norvegicus [3]
  inhibition: 13.3%
[1]
  Papp at 10 h: 0.35 ×10⁻⁶ cm/s
[4]
  IC50: > 40000 nM
[5]
  Activity (umolequiv/umol): 1.48
Rattus norvegicus [6]
  Ratio IC50: > 132

## CCNc1cc(-n2cccn2)ncn1
[2]
  inhibition: 32.1%

## CCNC(=S)Nc1cc(-n2cnc(CN3CCCCCC3)c2)ncn1
Acetylcholinesterase
  IC50: 121 nM
[1]
  Papp at 10 h: 5.3 ×10⁻⁶ cm/s
[4]
  IC50: 7190 nM
[5]
  Activity (umolequiv/umol): 1.24
Rattus norvegicus [6]
  Ratio IC50: 59

## CCNC(=S)Nc1cc(-n2cnc(CN(CC)CC)c2)ncn1
Acetylcholinesterase
  IC50: 115 nM
Rattus norvegicus [3]
  inhibition: 20.2%
[1]
  Papp at 10 h: 1 ×10⁻⁶ cm/s
[4]
  IC50: > 40000 nM
[5]
  Activity (umolequiv/umol): 1.31
Rattus norvegicus [6]
  Ratio IC50: > 348

## CCCCNC(=S)Nc1cc(-n2cccn2)ncn1
[2]
  inhibition: 66.6%
Acetylcholinesterase
  IC50: 23400 nM

## COc1cc2c(cc1OC)C(=O)C(CC1CCN(Cc3ccccc3)CC1)C2 (configuration not stated) [DONEPEZIL]
[7]
  Activity: Toxic
[8]
  Activity: Non-Toxic

## CCNC(=S)Nc1cc(-n2cnc(C=O)c2)ncn1
Acetylcholinesterase
  IC50: 166 nM
Rattus norvegicus [3]
  inhibition: 4.63%
[4]
  IC50: > 40000 nM
[5]
  Activity (umolequiv/umol): 0.31
Rattus norvegicus [6]
  Ratio IC50: > 241

## CC(=O)Nc1cc(-n2cccn2)ncn1
[2]
  inhibition: 5.09%

## CCNC(=S)Nc1cc(-n2cnc(CN(C)Cc3ccccc3)c2)ncn1
[5]
  Activity (umolequiv/umol): 1.25
Rattus norvegicus [6]
  Ratio IC50: 84

## CCNCc1cn(-c2cc(NC(=S)NCC)ncn2)cn1
Acetylcholinesterase
  IC50: 342 nM
Rattus norvegicus [3]
  inhibition: 21.5%
[4]
  IC50: > 40000 nM
[5]
  Activity (umolequiv/umol): 1.33
Rattus norvegicus [6]
  Ratio IC50: > 117

## CCNC(=S)Nc1cc(-n2cnc([N+](=O)[O-])c2)ncn1
Acetylcholinesterase
  IC50: 170 nM

## CCNC(=S)Nc1cc(N2CCN(C)CC2)ncn1
[2]
  inhibition: 70.1%
Acetylcholinesterase
  IC50: 3260 nM

## CCCc1cc(-n2cccn2)ncn1
[2]
  inhibition: 9.88%

## CCNC(=S)Nc1cc(-n2cnc(C(=O)OC)c2)ncn1
Acetylcholinesterase
  IC50: 347 nM

## CCNC(=S)Nc1cc(-n2ccnn2)ncn1
[2]
  inhibition: 61.5%
Acetylcholinesterase
  IC50: 14400 nM

## C/C=C1\[C@H]2C=C(C)C[C@]1(N)c1ccc(=O)[nH]c1C2 [HUPERZINE A]
Acetylcholinesterase
  IC50: 82 nM
[7]
  Activity: Non-Toxic
[8]
  Activity: Non-Toxic
[4]
  IC50: 36400 nM
Rattus norvegicus [6]
  Ratio IC50: 444

## CCNC(=S)Nc1cc(-n2cnc(CN3CCCCC3)c2)ncn1
Acetylcholinesterase
  IC50: 111 nM
[1]
  Papp at 10 h: 5 ×10⁻⁶ cm/s
[4]
  IC50: 18200 nM
[5]
  Activity (umolequiv/umol): 1.27
Rattus norvegicus [6]
  Ratio IC50: 164

## CCNC(=S)Nc1cc(-n2cnc(C(F)(F)F)c2)ncn1
Acetylcholinesterase
  IC50: 957 nM

## CNC(=S)Nc1cc(-n2cccn2)ncn1
[2]
  inhibition: 46%

## CCNC(=S)Nc1nccc(-n2ccnc2)n1
[2]
  inhibition: 64.9%
Acetylcholinesterase
  IC50: 8450 nM

## CCNC(=S)Nc1cc(-n2cnc(I)c2)ncn1
Acetylcholinesterase
  IC50: 636 nM

## CCNC(=S)Nc1cc(-n2cnc(Cl)c2)ncn1
Acetylcholinesterase
  IC50: 615 nM

## CCNC(=S)Nc1nc2c(c(-n3ccnc3)n1)CCC2
[2]
  inhibition: 24.4%
Acetylcholinesterase
  IC50: > 40000 nM

## c1cc(-n2cnc(CN3CCCC3)c2)ncn1
[9]
  Activity: Active
[10]
  Activity: Active
[11]
  Activity: Active
[12]
  Activity: Active
[5]
  Activity (umolequiv/umol): -0.01

## CC(C)(C)NC(=S)Nc1cc(-n2cccn2)ncn1
[2]
  inhibition: 11.3%

## CCCNC(=S)Nc1cc(-n2cccn2)ncn1
[2]
  inhibition: 64%
Acetylcholinesterase
  IC50: 22000 nM
